Target: T1, protein tyrosine phosphatase (PTP) 1B (Homo sapiens, UniProt P18031)
T1 sequence (P18031 1-435): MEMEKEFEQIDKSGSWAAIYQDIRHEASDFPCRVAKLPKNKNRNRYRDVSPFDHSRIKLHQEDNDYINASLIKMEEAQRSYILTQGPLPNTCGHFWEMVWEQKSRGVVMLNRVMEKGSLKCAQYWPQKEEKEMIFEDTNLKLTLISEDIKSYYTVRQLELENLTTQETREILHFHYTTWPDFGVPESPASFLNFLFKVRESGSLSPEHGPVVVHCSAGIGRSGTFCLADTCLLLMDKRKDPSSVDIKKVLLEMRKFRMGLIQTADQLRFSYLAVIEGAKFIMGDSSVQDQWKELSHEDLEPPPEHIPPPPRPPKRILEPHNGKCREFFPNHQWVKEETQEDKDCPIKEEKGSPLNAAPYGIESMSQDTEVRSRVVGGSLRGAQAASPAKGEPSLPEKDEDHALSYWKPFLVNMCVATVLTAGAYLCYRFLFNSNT
Test: in vitro PTP1B inhibitor screening assay
Assay type: biochemical

`C[C@H]1Oc2cc3c(-c4c(O)cc(O)c5c(O)c6c(cc45)O[C@H](C)[C@@H](C)C6=O)c(O)cc(O)c3c(O)c2C(=O)[C@@H]1C` [4548-G05, [9,9′-Bi-4H-naphtho[2,3-b]pyran]-4,4′-dione,2,2′,3,3′-tetrahydro-5,5′,6,6′,8,8′-hexahydroxy-2,2′,3,3′-tetramethyl] showed an IC50 of 75.3 ± 2.52 µM.

Source: publication PMC3964510 (Diabetes, 2014)
